Like-named read-outs stand apart in the source and are kept apart here. Some results are limits rather than exact numbers.

Data set [1] concerns C6 rat glioblastoma cell line. Also on record: method as in PMID 30664150. Conditions: C6 cells, administered separately, cited from earlier work.
For data set [2], the system named is glioblastoma cell line T98G. Also on record: method as in PMID 36551708. Conditions: cited from earlier work.
Data set [3] has as its system HeLa (human epithelial carcinoma). Also on record: method as in PMID 8593444. Conditions: cited from earlier work.
Data set [4] concerns HL-60 promyelocytic leukemia cells. Also on record: method as in PMID 9477175. The settings on record: HL-60 cell death; cited from earlier work.
The next data set deals with MDA-MB 231 cells. Also on record: method as in PMID 34719192. Conditions: cell counting kit 8, cited from earlier work. On the technique in general: Tetrazolium assays rely on reduction of a dye to a coloured formazan, in cell work by metabolically active cells.
In data set [5] the test system is MCF-12A nontumorigenic mammary epithelial cell line. In words: MTT cell proliferation assay, MCF-12A. The format is cell-based, human. The settings on record: Homo sapiens, MCF-12A.
Data set [6] can be described thus: MTT cell proliferation assay, MCF-12A. Conditions: human. The format is cell-based, human.
For another data set, the system named is protein kinase C (PKC). Conditions: cited from earlier work.
Data set [7] deals with OVCAR-3 ovarian cancer cell line. In words: MTT cell proliferation assay, OVCAR-3. The format is cell-based, human. Conditions: for IC50: Homo sapiens, MTT, estimation ± SE.
The nature of data set [8]: MTT cell proliferation assay, OVCAR-3. The format is cell-based, human. The settings on record: human.
In data set [9] the test system is MCF-7 breast adenocarcinoma cell line. In words: MTT cell proliferation assay, MCF-7. The format is cell-based, human. Conditions: for IC50: Homo sapiens, MCF7, MTT, estimation ± SE.
The nature of data set [10]: MTT cell proliferation assay, MCF-7. The settings on record: human. The format is cell-based, human.
The test system of data set [11] is lymphocytic leukemia cells P-388. Also on record: method as in PMID 2380718. The settings on record: cited from earlier work.
Data set [12] deals with Caco-2 colorectal adenocarcinoma cell line. Put plainly: MTT cell proliferation assay, Caco-2. Conditions: Homo sapiens, estimation ± SE. The format is cell-based.
Data set [13] concerns MDA-MB-231 breast adenocarcinoma cell line. Put plainly: MTT cell proliferation assay, MDA-MB-231. The format is cell-based, human. Conditions: for IC50: Homo sapiens, MTT, estimation ± SE.
Data set [14] is described as follows: MTT cell proliferation assay, MDA-MB-231. The format is cell-based, human. Conditions: human.
Data set [15] deals with pre-senescent normal human diploid fibroblasts. Also on record: method as in PMID 29505920. The settings on record: 3-week treatment; cited from earlier work.
For data set [16], the system named is d R Lh-84 cells (rat liver cancer). Also on record: method as in PMID 8593444. The settings on record: cited from earlier work.
The test system of data set [17] is MCF-7 breast cancer cells. Also on record: method as in PMID 34719192. Conditions: cell counting kit 8, cited from earlier work.
Data set [18] concerns P-388/D1 (mouse lymphoid tumor). Also on record: method as in PMID 8593444. The settings on record: cited from earlier work.
The format of data set [19] is cell-based. The settings on record: human.
Another data set concerns S-180 (sarcoma). Also on record: method as in PMID 8593444. Conditions: cited from earlier work.
For data set [20], the system named is HepG2 hepatocarcinoma cell line. Put plainly: MTT cell proliferation assay, HepG2. The format is cell-based, human. Conditions: Homo sapiens, MTT, estimation ± SE.
Data set [21] is described as follows: MTT cell proliferation assay, HepG2. The format is cell-based, human. The settings on record: human.

Regarding `Cn1nnc2c(C(N)=O)ncn2c1=O` [temozolomide, reference compound], the cell viability entry in [1] (5 mM) is “ca. 52%”.
As for `O=c1cc(-c2ccc(O)c(O)c2)oc2c([C@@H]3O[C@H](CO)[C@@H](O)[C@H](O)[C@H]3O)c(O)cc(O)c12` [orientin, reference compound], in data set [2], the IC50 is over 100 µM.
Turning to `C[C@@H]1O[C@@H](O[C@@H]2[C@@H](O)[C@H](OCCc3ccc(O)c(O)c3)O[C@H](CO)[C@H]2OC(=O)/C=C/c2ccc(O)c(O)c2)[C@H](O)[C@H](O)[C@H]1O` [Acteoside], the IC50 in data set [3] (HeLa (human epithelial carcinoma), first value listed, converted, read-out: IC50) is over 320 µM; in [3] (HeLa (human epithelial carcinoma), first value listed) it was over 200 µg/mL; in data set [3] (HeLa cells, second value listed, converted, read-out: IC50), 12.5 µM; in [4] it was 26.7 µM; in the data set on MDA-MB 231 cells (MDA-MB 231, 24 h exposure), 0.16 µM; in the data set on MDA-MB 231 cells (MDA-MB 231, 48 h exposure), 0.258 µM. The IC50 in the data set on MDA-MB 231 cells (MDA-MB 231, 72 h exposure) was 0.256 µM; in [5] (24 h, MTT, estimation ± SE, read-out: IC50), 362.3 ± 1.86 µM; in data set [5] (48 h, MTT, estimation ± SE, read-out: IC50), 347 ± 3.67 µM; in [5] (72 h, MTT, estimation ± SE, read-out: IC50) it was 326 ± 3.89 µM; in [5] (time not stated, summary of Table 1, read-out: IC50 (potency against the MCF-12A line)) it was about 300 µM; in data set [7] (OVCAR-3, 24 h), 314 ± 3.52 µM. The IC50 was 232 ± 5.08 µM in data set [7] (OVCAR-3, 48 h); 163 ± 3.41 µM in data set [7] (OVCAR-3, 72 h); 219.1 ± 1.4 µM in [9] (MCF-7, 24 h); 154 ± 2.71 µM in data set [9] (MCF-7, 48 h); 113 ± 2.81 µM in data set [9] (MCF-7, 72 h); 85 µM in [2]. For the same compound, the IC50 in data set [12] (Caco-2, 24 h, values exceeding 500 μM determined with CompuSyn from dose-response curve estimation) is over 500 µM; in [12] (Caco-2, 48 h), 467 ± 8.71 µM; in [12] (Caco-2, 72 h), 280 ± 6.13 µM; in data set [13] (MDA-MB-231, 24 h), 312 ± 3.28 µM; in [13] (MDA-MB-231, 48 h), 245 ± 4.96 µM; in data set [13] (MDA-MB-231, 72 h), 200 ± 2.45 µM. Also, the IC50 is 61.98 µg/mL in [16]; 99.2 µM in data set [16] (converted from µg/mL, read-out: IC50); 0.127 µM in data set [17] (MCF-7, 24 h exposure); 0.217 µM in data set [17] (MCF-7, 48 h exposure); 0.283 µM in data set [17] (MCF-7, 72 h exposure); 354 µM in data set [18] (P-388/D1, converted from µg/mL, read-out: IC50). Besides, the 50% inhibitory concentration (IC50) in [18] (P-388/D1) is 221.0 µg/mL; in the data set on S-180 (sarcoma) (S-180, converted from µg/mL, read-out: IC50), 47.4 µM; with S-180 (sarcoma) (S-180) it was 29.6 µg/mL; in data set [20] (HepG2, 24 h) it was 261 ± 3.52 µM; in [20] (HepG2, 48 h), 220 ± 2.65 µM; in data set [20] (HepG2, 72 h), 173.8 ± 1.59 µM. In addition, the viability at 400 µM in [6] is under 30%. Moreover, the “inhibition of protein kinase C (in words)” value in the data set on protein kinase C (PKC) was “inhibitor”. Besides, the “toxic effect (in words)” value in [7] (OVCAR-3, 200 μM, after 24 h of treatment) is “highly toxic effect”; in [9] (MCF-7, 200 μM, after 24 h of treatment), “highly toxic effect”; in [13] (MDA-MB-231, 200 μM, after 24 h of treatment), “highly toxic effect”. In addition, the viability at 200 µM in data set [8], in data set [10], in data set [14], in data set [19] and in data set [21] was at most 30% throughout. Moreover, the ED50 in [11] (lymphocytic leukemia cells P-388, converted from µg/mL) was 4.16 µM; in data set [11] (lymphocytic leukemia cells P-388), 2.6 µg/mL. Further, the “cytotoxic effect (in words)” value in data set [15] was “no cytotoxic effect”. Besides, in data set [1] (50 µM), the cell viability is about 80%.

Broadly, the cell viability is a read-out of living cells in per cent, often relative to untreated cells. A word on the IC50: it is the concentration at which inhibition is half-maximal. One may read the viability as a per cent measure of how many cells are alive, often set against a control. Read a high viability as less harm to the cells.
